Experiments:
human MC1R (hMC1R) = biological target: T1, human MC1R (hMC1R) (Homo sapiens, UniProt Q01726); test: Human MC1R radioligand binding assay (displacement of 125I-labeled NDP-MSH, Perkin Elmer hMC1R membranes); conditions: displacement of [125I]NDP-MSH, compounds tested as trifluoroacetate or hydrochloride salts or free base
T1 construct: purchased Perkin Elmer ES-195-M400UA
Outline: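 Frozen human MC1R membranes were incubated with in-house iodinated, HPLC-purified [125I]NDP-MSH for 1 hr at 37° C. Binding was measured as displacement of the labeled peptide.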

human MC1R [1] = biological target: T2, human MC1R (Homo sapiens, UniProt Q01726); test: cAMP accumulation in MM96L cells transiently transfected with wild type MC1R; format: cell-based; conditions: 30 min stimulation with 10 μM compound
T2 sequence (Q01726 whole entry): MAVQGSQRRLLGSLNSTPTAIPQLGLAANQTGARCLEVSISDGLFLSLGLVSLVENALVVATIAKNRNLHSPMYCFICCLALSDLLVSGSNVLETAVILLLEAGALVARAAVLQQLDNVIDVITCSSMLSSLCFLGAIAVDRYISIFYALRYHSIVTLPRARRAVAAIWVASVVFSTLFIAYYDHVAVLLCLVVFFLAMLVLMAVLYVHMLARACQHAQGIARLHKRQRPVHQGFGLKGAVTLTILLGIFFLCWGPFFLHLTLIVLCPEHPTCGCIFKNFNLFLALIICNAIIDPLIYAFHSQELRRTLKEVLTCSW
Method: In a similar assay testing for MC1R agonism, MM96L cells were transiently transfected with wild type MC1R and stimulated with compound (10 μM) for different time points, with cAMP accumulation compared to basal cAMP levels and the cAMP response to stimulation with NDP-MSH

human MC1R [2] = biological target: T2, human MC1R; test: cAMP stimulation assay, agonist mode, HEK 293 cells transiently expressing MC1 receptor (Alphascreen); format: cell-based; design: host or cells: HEK 293 (transient transfection); conditions: HEK293 cell; read-out: human MC1R agonism (cAMP EC50 HEK293 cell)
Method: HEK 293 cells transiently expressing the melanocortin MC1 receptor were suspended in stimulation buffer (Hanks buffered saline solution (HBSS), 0.1% bovine serum albumin, protease inhibitors and 0.5 mM 3-Isobutyl-1-methylxanthine) at 4×10^6 cells/mL. 5 μl of cells, plus the compounds/peptides as described below, were added to wells of a 384-well plate as soon as possible after resuspension.
To detect agonist activity, test compounds at varying concentrations were diluted in stimulation buffer at two times concentrate and 5 μl was added to wells containing cells. Positive control wells contained NDP-MSH or alpha-MSH alone (no compound) at two times concentrate
Basal level (of cAMP) control wells contained stimulation buffer only (no agonist or compounds). Known concentrations of cAMP (standards) in stimulation buffer were included on the plate, but no cells were added to these wells. The plate was then incubated for 30 mins at 37° C. with gentle shaking. After incubation, 10 μl of lysis buffer (10% Tween 20, 1 M HEPES, 0.1% BSA, protease inhibitors, ddH2O) was added to all wells to be measured. Detection of cAMP was then achieved using the Alphascreen cAMP kit (Perkin Elmer, USA), briefly described as follows. A dilution of 10 μl acceptor beads/mL of lysis buffer was prepared in low light conditions. 5 μl of diluted acceptor beads were added to each well to be measured, then the plate was incubated for 30 mins at room temperature, in the dark, with gentle shaking. In low light conditions, donor beads were diluted at 10 μl/mL of lysis buffer, to which 0.75 μl biotinylated cAMP/mL of lysis buffer was added. This mixture was allowed to incubate for 30 mins at room temperature (in the dark) before proceeding with the assay. Following incubation, 5 μl/mL of biotinylated cAMP/Donor bead mix were added per well in low light conditions and the plate was incubated in the dark, at room temperature, for a further hr. Plates were read on an Envision plate reader (Perkin Elmer) after 1 hr and ˜16 hrs incubation. cAMP concentration in the cells was determined by the use of a ‘standard curve’ generated from the output of known cAMP concentrations as described below.
Each assay plate contained a “standard curve” of known concentrations of cAMP, in 10 fold dilutions. This is an essential part of the assay as there is high inter-plate variability. The plates were read on an Envision multilabel plate reader fitted with Alphascreen technology and the raw data was imported into GraphPad Prism 4 software (GraphPad, USA) for analysis.

T1 sequence (Q01726 whole entry): as above

N=C(N)NCCC[C@@H]1N[C@@H](CNC(=O)c2ccc(-c3ccccc3)cc2)CCN(C(c2ccccc2)c2ccccc2)C1=O [Compound 185, N-(((3S,5R)-1-benzhydryl-3-(3-guanidinopropyl)-2-oxo-1,4-diazepan-5-yl)methyl)biphenyl-4-carboxamide]
IC50 (human MC1R (hMC1R)): < 10 µM
human MC1R agonism (cAMP, fold incease over basal level) (human MC1R [1]): 1.5 fold

N=C(N)NCCC[C@@H]1N[C@H](CNC(=O)c2ccc3ccccc3c2)CCN(CC2CCCCC2)C1=O [Compound 116, N-(((3S,5S)-1-(cyclohexylmethyl)-3-(3-guanidinopropyl)-2-oxo-1,4-diazepan-5-yl)methyl)-2-naphthamide]
EC50 (human MC1R [2]): 16 µM
IC50 (human MC1R (hMC1R)): < 10 µM

CC(=O)N[C@@H](Cc1c[nH]cn1)C(=O)N[C@H](Cc1ccccc1)[C@@H]1CCN(CCc2c[nH]c3ccccc23)C(=O)[C@H](CCCNC(=N)N)N1 [Compound 119, (S)—N—((R)-1-((3S,5S)-1-(2-(1H-indol-3-yl)ethyl)-3-(3-guanidinopropyl)-2-oxo-1,4-diazepan-5-yl)-2-phenylethyl)-2-acetamido-3-(1H-imidazol-4-yl)propanamide]
EC50 (human MC1R [2]): 7 µM
IC50 (human MC1R (hMC1R)): < 10 µM

NCC[C@@H]1N[C@H](CNC(=O)/C=C/c2ccc(Cl)cc2)CCN(CC(c2ccccc2)c2ccccc2)C1=O [Compound 136, (E)-N-(((3S,5S)-3-(2-aminoethyl)-1-(2,2-diphenylethyl)-2-oxo-1,4-diazepan-5-yl)methyl)-3-(4-chlorophenyl)acrylamide]
IC50 (human MC1R (hMC1R)): < 10 µM
human MC1R agonism (cAMP, fold incease over basal level) (human MC1R [1]): 1.5 fold

N=C(N)NCCC[C@H]1C(=O)N(C(c2ccccc2)c2ccccc2)CC[C@H]2CN(Cc3ccc(-c4ccccc4)cc3)C(=O)N21 [Compound 110, 1-(3-((5S,9aS)-7-benzhydryl-2-(biphenyl-4-ylmethyl)-3,6-dioxooctahydro-1H-imidazo[1,5-d][1,4]diazepin-5-yl)propyl)guanidine]
EC50 (human MC1R [2]): 78 µM
IC50 (human MC1R (hMC1R)): < 10 µM
human MC1R agonism (cAMP, fold incease over basal level) (human MC1R [1]): 1.5 fold

N=C(N)NCCC[C@@H]1N[C@H](CNC(=O)c2ccc(Oc3ccccc3)cc2)CCN(CC(c2ccccc2)c2ccccc2)C1=O [Compound 112, N-(((3S,5S)-1-(2,2-diphenylethyl)-3-(3-guanidinopropyl)-2-oxo-1,4-diazepan-5-yl)methyl)-4-phenoxybenzamide]
EC50 (human MC1R [2]): 11 µM
IC50 (human MC1R (hMC1R)): < 10 µM

N=C(N)NCCC[C@H]1N[C@@H](CNC(=O)c2ccc(-c3ccccc3)cc2)CCN(C(c2ccccc2)c2ccccc2)C1=O [Compound 186, N-(((3R,5R)-1-benzhydryl-3-(3-guanidinopropyl)-2-oxo-1,4-diazepan-5-yl)methyl)biphenyl-4-carboxamide]
IC50 (human MC1R (hMC1R)): < 10 µM
human MC1R agonism (cAMP, fold incease over basal level) (human MC1R [1]): 2.5 fold
